Reference: patent publication US20150344540A1, “NOVEL GLP-1 RECEPTOR AGONISTS WITH CHOLESTEROL EFFLUX ACTIVITY” (NOVO NORDISK A/S, priority 2012, published 2015)
pEC50: −log10 of the molar value. Like-named read-outs stand apart in the source and are kept apart here. Where a SMILES comes first, the peptide text is derived from it. Where no end group is shown, it is not given here. [ ]: non-standard residue; d: D form. Aib = CC(C)(N)C(=O)O

Tests used:
[1] = system: Mouse monocyte/macrophage cell line, RAW 264.7; experiment: Cholesterol efflux assay (3H-cholesterol, macrophage cell line); format: cell-based; conditions: RAW 264.7, 4 hrs incubation, 0.1% human serum albumin; for 4 h Cholesterol Efflux Emax: ABCA1-mediated efflux; for pEC50: read-out: 4 h Cholesterol Efflux EC50, ABCA1-mediated efflux (CPT-cAMP induced minus non-induced)
human GLP-1 receptor = human GLP-1 receptor (Homo sapiens, UniProt P43220); experiment: Functional GLP-1 receptor assay, in vitro potency (CRE luciferase; whole cells); format: cell-based
human GLP-1 receptor, sequence (P43220 24-463): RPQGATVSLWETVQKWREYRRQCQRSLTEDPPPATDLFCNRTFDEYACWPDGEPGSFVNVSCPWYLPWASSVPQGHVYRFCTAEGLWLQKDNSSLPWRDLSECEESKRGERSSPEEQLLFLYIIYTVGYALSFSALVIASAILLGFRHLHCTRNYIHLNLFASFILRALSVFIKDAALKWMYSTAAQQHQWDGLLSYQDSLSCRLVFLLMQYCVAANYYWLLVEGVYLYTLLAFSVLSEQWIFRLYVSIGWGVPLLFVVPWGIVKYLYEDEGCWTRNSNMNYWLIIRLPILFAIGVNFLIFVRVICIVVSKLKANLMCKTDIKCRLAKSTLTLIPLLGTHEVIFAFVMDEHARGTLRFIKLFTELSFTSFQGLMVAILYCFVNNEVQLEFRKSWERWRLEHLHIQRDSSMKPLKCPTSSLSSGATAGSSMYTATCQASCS

Row | Molecule | 4 h Cholesterol Efflux Emax [1] | further results
1 | CC[C@H](C)[C@H](NC(=O)[C@H](Cc1ccccc1)NC(=O)[C@H](CCC(=O)O)NC(=O)[C@H](CCCCN)NC(=O)[C@@H](NC(=O)[C@H](C)NC(=O)[C@H](CCC(=O)O)NC(=O)CNC(=O)[C@H](CCC(=O)O)NC(=O)[C@H](CC(C)C)NC(=O)[C@H](Cc1ccc(O)cc1)NC(=O)[C@H](CO)NC(=O)[C@H](CO)NC(=O)[C@@H](NC(=O)[C@H](CC(=O)O)NC(=O)[C@H](CO)NC(=O)[C@@H](NC(=O)[C@H](Cc1ccccc1)NC(=O)[C@@H](NC(=O)CNC(=O)[C@H](CCC(=O)O)NC(=O)C(C)(C)NC(=O)[C@@H](N)Cc1c[nH]cn1)[C@@H](C)O)[C@@H](C)O)C(C)C)C(C)C)C(=O)N[C@@H](C)C(=O)N[C@@H](Cc1c[nH]c2ccccc12)C(=O)N[C@@H](CC(C)C)C(=O)N[C@H](C(=O)NCC(=O)NC(C)(C)C(=O)N[C@@H](CCCCN)C(=O)N[C@@H](CCC(=O)O)C(=O)N[C@@H](Cc1ccccc1)C(=O)N[C@@H](CC(C)C)C(N)=O)C(C)C [Compound 10] (H-H[Aib]EGTFTSDVSSYLEGEAVKEFIAWLVG[Aib]KEFL-NH2) | 79% | pEC50 (human GLP-1 receptor; BHK cells expressing human GLP-1 receptor, 0% HSA, read-out: GLP1R CRE luc 0% HSA EC50 Mean Value): 11.00; pEC50 (human GLP-1 receptor; GLP1R CRE luc 1% HSA EC50 Mean Value, BHK cells expressing human GLP-1 receptor, 1% HSA): 11.40
2 | CC[C@H](C)[C@H](NC(=O)[C@H](Cc1ccccc1)NC(=O)[C@H](CCC(=O)O)NC(=O)[C@H](CCCCN)NC(=O)[C@@H](NC(=O)[C@H](C)NC(=O)[C@H](CCC(=O)O)NC(=O)CNC(=O)[C@H](CCC(=O)O)NC(=O)[C@H](CC(C)C)NC(=O)[C@H](Cc1ccc(O)cc1)NC(=O)[C@H](CO)NC(=O)[C@H](CO)NC(=O)[C@@H](NC(=O)[C@H](CC(=O)O)NC(=O)[C@H](CO)NC(=O)[C@@H](NC(=O)[C@H](CC(C)C)NC(=O)[C@@H](NC(=O)CNC(=O)[C@H](CC(=O)O)NC(=O)[C@H](C)NC(=O)[C@@H](N)Cc1c[nH]cn1)[C@@H](C)O)[C@@H](C)O)[C@@H](C)CC)C(C)C)C(=O)N[C@@H](C)C(=O)N[C@@H](Cc1c[nH]c2ccccc12)C(=O)N[C@@H](CC(C)C)C(=O)N[C@H](C(=O)N[C@@H](CCC(=O)O)C(=O)N[C@@H](CCCCN)C(=O)NC(C)(C)C(=O)N[C@@H](CCCCN)C(=O)N[C@@H](CCC(=O)O)C(=O)N[C@@H](Cc1ccccc1)C(=O)N[C@@H](CC(C)C)C(N)=O)C(C)C [Compound 14, [Asp9,Leu12,Ile16,Glu23,Val25,Glu34,Lys35,Aib36,Lys37]-GLP-1-(7-37)-peptidyl-Glu-Phe-Leu amide] (H-HADGTLTSDISSYLEGEAVKEFIAWLVEK[Aib]KEFL-NH2; N-terminus assumed) |  | pEC50 [1]: 6.52; pEC50 (human GLP-1 receptor; GLP1R CRE luc 1% HSA EC50 Mean Value): 10.21
3 | CC[C@H](C)[C@H](NC(=O)[C@H](Cc1ccccc1)NC(=O)[C@H](CCC(N)=O)NC(=O)[C@H](CCCCN)NC(=O)[C@@H](NC(=O)[C@H](C)NC(=O)[C@H](CCC(N)=O)NC(=O)CNC(=O)[C@H](CCC(=O)O)NC(=O)[C@H](CC(C)C)NC(=O)[C@H](Cc1ccc(O)cc1)NC(=O)[C@H](CO)NC(=O)[C@H](CO)NC(=O)[C@@H](NC(=O)[C@H](CC(=O)O)NC(=O)[C@H](CO)NC(=O)[C@@H](NC(=O)[C@H](Cc1ccccc1)NC(=O)[C@@H](NC(=O)CNC(=O)[C@H](CCC(=O)O)NC(=O)C(C)(C)NC(=O)[C@@H](N)Cc1c[nH]cn1)[C@@H](C)O)[C@@H](C)O)C(C)C)C(C)C)C(=O)N[C@@H](C)C(=O)N[C@@H](Cc1c[nH]c2ccccc12)C(=O)N[C@@H](CC(C)C)C(=O)N[C@H](C(=O)N[C@@H](CCC(N)=O)C(=O)N[C@@H](CCCCN)C(=O)NC(C)(C)C(=O)N[C@@H](CCCCN)C(=O)N[C@@H](CCC(N)=O)C(=O)N[C@@H](Cc1ccccc1)C(=O)N[C@@H](CC(C)C)C(N)=O)C(C)C [Compound 102, [Aib8,Val25,Gln27,Gln34,Lys35,Aib36,Lys37]-GLP-1-(7-37)-peptidyl-Gln-Phe-Leu amide] (H-H[Aib]EGTFTSDVSSYLEGQAVKQFIAWLVQK[Aib]KQFL-NH2) | 100% | 
4 | CC[C@H](C)[C@H](NC(=O)[C@H](Cc1ccccc1)NC(=O)[C@H](CCC(=O)O)NC(=O)[C@H](CCCCN)NC(=O)[C@@H](NC(=O)[C@H](C)NC(=O)[C@H](CCC(=O)O)NC(=O)[C@H](CCC(=O)O)NC(=O)[C@H](CCC(=O)O)NC(=O)[C@H](CC(C)C)NC(=O)[C@H](Cc1ccc(O)cc1)NC(=O)[C@H](CO)NC(=O)[C@H](CO)NC(=O)[C@@H](NC(=O)[C@H](CC(=O)O)NC(=O)[C@H](CO)NC(=O)[C@@H](NC(=O)[C@H](Cc1ccccc1)NC(=O)[C@@H](NC(=O)CNC(=O)[C@H](CCC(=O)O)NC(=O)C(C)(C)NC(=O)[C@@H](N)Cc1c[nH]cn1)[C@@H](C)O)[C@@H](C)O)C(C)C)C(C)C)C(=O)N[C@@H](C)C(=O)N[C@@H](Cc1c[nH]c2ccccc12)C(=O)N[C@@H](CC(C)C)C(=O)N[C@H](C(=O)N[C@@H](CCC(=O)O)C(=O)N[C@@H](CCCCN)C(=O)N[C@H](C(=O)N[C@@H](CCCCN)C(=O)N[C@@H](CCC(=O)O)C(=O)N[C@@H](CC(C)C)C(=O)N[C@@H](CC(C)C)C(N)=O)C(C)C)C(C)C [Compound 109, [Aib8,Glu22,Glu23,Val25,Glu34,Lys35,Val36,Lys37]-GLP-1-(7-37)-peptidyl-Glu-Leu-Leu amide] (H-H[Aib]EGTFTSDVSSYLEEEAVKEFIAWLVEKVKELL-NH2) | 99% | 
5 | CC[C@H](C)[C@H](NC(=O)[C@H](Cc1ccccc1)NC(=O)[C@H](CCC(=O)O)NC(=O)[C@H](CCCCN)NC(=O)[C@@H](NC(=O)[C@H](C)NC(=O)[C@H](CCC(=O)O)NC(=O)CNC(=O)[C@H](CCC(=O)O)NC(=O)[C@H](CC(C)C)NC(=O)[C@H](Cc1ccc(O)cc1)NC(=O)[C@H](CO)NC(=O)[C@H](CO)NC(=O)[C@@H](NC(=O)[C@H](CC(=O)O)NC(=O)[C@H](CO)NC(=O)[C@@H](NC(=O)[C@H](Cc1ccccc1)NC(=O)[C@@H](NC(=O)CNC(=O)[C@H](CCC(=O)O)NC(=O)C(C)(C)NC(=O)[C@@H](N)Cc1c[nH]cn1)[C@@H](C)O)[C@@H](C)O)C(C)C)C(C)C)C(=O)N[C@@H](C)C(=O)N[C@@H](Cc1c[nH]c2ccccc12)C(=O)N[C@@H](CC(C)C)C(=O)N[C@H](C(=O)N[C@@H](CCC(=O)O)C(=O)N[C@@H](CCCCN)C(=O)N[C@H](C(=O)N[C@@H](CCCCN)C(=O)N[C@@H](CC(=O)O)C(=O)N[C@@H](Cc1ccccc1)C(=O)N[C@@H](CC(C)C)C(N)=O)C(C)C)C(C)C [Compound 114, [Aib8,Glu23,Val25,Glu34,Lys35,Val36,Lys37]-GLP-1-(7-37)-peptidyl-Asp-Phe-Leu amide] (H-H[Aib]EGTFTSDVSSYLEGEAVKEFIAWLVEKVKDFL-NH2) | 103% | 
6 | CC[C@H](C)[C@H](NC(=O)[C@H](Cc1ccccc1)NC(=O)[C@H](CCC(=O)O)NC(=O)[C@H](CCCCN)NC(=O)[C@@H](NC(=O)[C@H](C)NC(=O)[C@H](CCC(=O)O)NC(=O)CNC(=O)[C@H](CCC(=O)O)NC(=O)[C@H](CC(C)C)NC(=O)[C@H](Cc1ccc(O)cc1)NC(=O)[C@H](CO)NC(=O)[C@H](CO)NC(=O)[C@@H](NC(=O)[C@H](CC(=O)O)NC(=O)[C@H](CO)NC(=O)[C@@H](NC(=O)[C@H](Cc1ccccc1)NC(=O)[C@@H](NC(=O)CNC(=O)[C@H](CCC(=O)O)NC(=O)C(C)(C)NC(=O)[C@@H](N)Cc1c[nH]cn1)[C@@H](C)O)[C@@H](C)O)C(C)C)C(C)C)C(=O)N[C@@H](C)C(=O)N[C@@H](Cc1c[nH]c2ccccc12)C(=O)N[C@@H](CC(C)C)C(=O)N[C@H](C(=O)N[C@@H](CCC(=O)O)C(=O)N[C@@H](CCCCN)C(=O)N[C@H](C(=O)N[C@@H](CCCCN)C(=O)N[C@@H](CCC(=O)O)C(=O)N[C@@H](CC(C)C)C(=O)N[C@@H](CC(C)C)C(N)=O)C(C)C)C(C)C [Compound 119, [Aib8,Glu23,Val25,Glu34,Lys35,Val36,Lys37]-GLP-1-(7-37)-peptidyl-Glu-Leu-Leu amide] (H-H[Aib]EGTFTSDVSSYLEGEAVKEFIAWLVEKVKELL-NH2) | 117% | 
7 | CC[C@H](C)[C@H](NC(=O)[C@H](Cc1ccccc1)NC(=O)[C@H](CCC(=O)O)NC(=O)[C@H](CCCCN)NC(=O)[C@H](C)NC(=O)[C@H](C)NC(=O)[C@H](CCC(N)=O)NC(=O)CNC(=O)[C@H](CCC(=O)O)NC(=O)[C@H](CC(C)C)NC(=O)[C@H](Cc1ccc(O)cc1)NC(=O)[C@H](CO)NC(=O)[C@H](CO)NC(=O)[C@@H](NC(=O)[C@H](CC(=O)O)NC(=O)[C@H](CO)NC(=O)[C@@H](NC(=O)[C@H](Cc1ccccc1)NC(=O)[C@@H](NC(=O)CNC(=O)[C@H](CCC(=O)O)NC(=O)[C@H](C)NC(=O)[C@@H](N)Cc1c[nH]cn1)[C@@H](C)O)[C@@H](C)O)C(C)C)C(=O)N[C@@H](C)C(=O)N[C@@H](Cc1c[nH]c2ccccc12)C(=O)N[C@@H](CC(C)C)C(=O)N[C@H](C(=O)N[C@@H](CCCCN)C(=O)NCC(=O)N[C@@H](CCCNC(=N)N)C(=O)NCC(=O)O)C(C)C [GLP-1(7-37), reference compound] | <10% | 
8 | Ac-DWFKAFYDKVAEKFKEAF-NH2 (N-terminus and C-terminus assumed) [Compound L-4F, reference compound] | 108% | 
9 | H-HAEGTFTSDVSSYLEGEAVKEFIAWLVEKVKEHLEK-OH [Compound 125, [Glu23,Val25,Glu34,Lys35,Val36,Lys37]-GLP-1-(7-37)-peptidyl-Glu-His-Leu-Glu-Lys] | 111% | 
10 | H-HAEGTFTSDVSSYLEGQAAKEFIAWLVEKVKEHLEK-OH [Compound 126, [Glu34,Lys35,Val36,Lys37]-GLP-1-(7-37)-peptidyl-Glu-His-Leu-Glu-Lys] | 102% | 
11 | H-HGEGTFTSDVSSYLEGEAVKEFIAWLVEKVKEFLG-OH [Compound 92, [Gly8,Glu23,Val25,Glu34,Lys35,Val36,Lys37]-GLP-1-(7-37)-peptidyl-Glu-Phe-Leu-Gly] | 129% | 
12 | HAQGTFTSDYSKYLDSKAAREFVQWLLEKVKEFL-NH2 [Compound 68] |  | pEC50 [1]: 6.57
